Assays:
[1] = tested on: Transgenic Tg(kdrl:GFP)la116 zebrafish embryos; assay: Disruption of the caudal vein plexus in zebrafish embryos; assay type: in vivo; settings: two-day-old zebrafish embryos, treated beginning at 10 hpf
Method: (§1) Transgenic Tg(kdrl:GFP)la116 zebrafish embryos were treated with aplexone compounds beginning at 10 hours post fertilization (hpf). After two days of development, treated embryos were anesthetized with 0.01% tricaine and imaged using a Zeiss Axioplan 2 microscope. […] Formation of the caudal vein plexus is disrupted by treatment with 10 μM or higher of racemic (±)-aplexone (3) and 5 μM or higher of R-aplexone (3), but the caudal vein plexus forms normally even after treatment with 20 μM (S)-aplexone (3).

[2] = tested on: HMG-CoA reductase pathway; settings: zebrafish; Choi et al., Development 2011; cited from earlier work
[3] = tested on: Zebrafish embryos; assay: Cholesterol assay in zebrafish embryos (Amplex Red Cholesterol Assay Kit); assay type: in vivo; settings: 40 μM, treated from 10 hpf to 30 hpf; FIG. 1
Method: (§2) Zebrafish embryos used in cholesterol assays were treated with aplexone or atorvastatin (AT) from 10 hpf to 30 hpf at a concentration of 40 μM. Yolks were removed by vortexing in calcium-free Ringer's solution with 1 mM EDTA at 4° C. The embryos were then washed with calcium-free Ringer's solution, resuspended in cholesterol assay reaction buffer, and lysed by sonication. Cholesterol levels in embryo lysates were measured with an Amplex Red Cholesterol Assay Kit (ThermoFisher Scientific) and FLUOstar Omega microplate reader (BMG Labtech). Protein concentrations of the embryo lysates were measured by DC protein assay (Bio-Rad Laboratories) using a FLUOstar Omega microplate reader.

[4] = tested on: zebrafish; settings: Choi et al., Development 2011; cited from earlier work
[5] = tested on: Zebrafish embryos; assay: Biological assays used herein (summary statement); assay type: in vivo
Method: as §1, §2

SMILES: CC(=O)C1=CCC(c2ccccc2)N(S(=O)(=O)c2ccc(C)cc2)C1 (racemic) [(±)-aplexone, 1-(6-phenyl-1-tosyl-1,2,5,6-tetrahydropyridin-3-yl)ethan-1-one]
- concentration at which formation of the caudal vein plexus is disrupted [1]: ≥ 10 µM
- regulation of arteriovenous angiogenesis [2]: regulate arteriovenous angiogenesis in zebrafish
- cholesterol levels in embryo lysates compared with atorvastatin (AT) [3]: lowered the cholesterol levels to an extent similar to that of AT
- levels of embryonic cholesterol compared with atorvastatin [4]: lowered the levels of embryonic cholesterol to a degree similar to that of atorvastatin

SMILES: CCOC(=O)C1=CC[C@H](c2ccccc2)N(S(=O)(=O)c2ccc(C)cc2)C1 [7c, Ethyl (R)-6-phenyl-1-tosyl-1,2,5,6-tetrahydropyridine-3-carboxylate]
- melting point: 145 to 146 °C

SMILES: CC(=O)C1=CC[C@H](c2ccccc2)N(S(=O)(=O)c2ccc(C)cc2)C1 [R-aplexone]
- concentration at which formation of the caudal vein plexus is disrupted [1]: ≥ 5 µM
- cholesterol levels in embryo lysates compared with atorvastatin (AT) [3]: decreased the cholesterol levels to a greater extent than AT
- biological activity of the enantiomer [5]: active enantiomer

SMILES: CC(=O)C1=CC[C@@H](c2ccccc2)N(S(=O)(=O)c2ccc(C)cc2)C1 [S-aplexone]
- concentration at which formation of the caudal vein plexus is disrupted [1]: > 20 µM
- cholesterol levels in embryo lysates compared with atorvastatin (AT) [3]: no cholesterol lowering activity
- biological activity of the enantiomer [5]: little to no biological activity
